Data reported in US5994334A, “Androgen synthesis inhibitors” (priority 1997, dated 1999).
“Also recorded” adds a separate entry of the source. Where two headings read alike, the source gives them in different places.

Key:
[1] = target: human androgen receptor (AR) (Homo sapiens, UniProt P10275); test: Androgen receptor-mediated gene transcription, wild-type AR (luciferase, CV1 cells); assay type: cell-based; details: against DHT stimulation
[2] = target: T1, human 17α-hydroxylase/C17,20-lyase (Homo sapiens, UniProt P05093); test: Inhibition of human testicular 17α-hydroxylase/C17,20-lyase (enzyme complex as a whole); assay type: biochemical
T1 construct: incubating human testicular microsomes; from tissue; host or cells: human testis, microsomes
T1 sequence (P05093 1-508): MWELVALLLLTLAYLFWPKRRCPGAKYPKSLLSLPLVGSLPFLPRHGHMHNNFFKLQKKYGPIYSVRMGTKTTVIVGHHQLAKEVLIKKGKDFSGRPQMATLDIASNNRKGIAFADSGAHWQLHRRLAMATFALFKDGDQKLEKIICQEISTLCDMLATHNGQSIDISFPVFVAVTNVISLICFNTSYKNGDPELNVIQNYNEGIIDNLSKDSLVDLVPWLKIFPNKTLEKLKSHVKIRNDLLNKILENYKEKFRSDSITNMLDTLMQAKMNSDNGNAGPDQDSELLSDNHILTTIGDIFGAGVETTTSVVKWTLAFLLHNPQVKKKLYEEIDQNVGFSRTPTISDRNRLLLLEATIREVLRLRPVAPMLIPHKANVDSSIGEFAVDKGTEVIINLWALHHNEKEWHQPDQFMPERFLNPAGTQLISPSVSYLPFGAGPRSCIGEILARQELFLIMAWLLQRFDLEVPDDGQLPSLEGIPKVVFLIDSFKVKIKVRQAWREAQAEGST
Summary of the method: (§1)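 Radiolabeled pregnenolone, human testicular microsomes, test compound at varied concentrations; reverse-phase HPLC of substrate and metabolites. 17α-OHase = pregnenolone → 17α-OH-pregnenolone + DHEA; lyase = pregnenolone → DHEA.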

[3] = target: T2, Human Testicular 17α-Hydroxylase (Homo sapiens, UniProt P05093); test: Inhibition of human testicular 17α-hydroxylase (pregnenolone substrate, testicular microsomes); assay type: biochemical
T2 construct: incubating human testicular microsomes; from tissue; host or cells: human testis, microsomes
T2 sequence (P05093 1-508): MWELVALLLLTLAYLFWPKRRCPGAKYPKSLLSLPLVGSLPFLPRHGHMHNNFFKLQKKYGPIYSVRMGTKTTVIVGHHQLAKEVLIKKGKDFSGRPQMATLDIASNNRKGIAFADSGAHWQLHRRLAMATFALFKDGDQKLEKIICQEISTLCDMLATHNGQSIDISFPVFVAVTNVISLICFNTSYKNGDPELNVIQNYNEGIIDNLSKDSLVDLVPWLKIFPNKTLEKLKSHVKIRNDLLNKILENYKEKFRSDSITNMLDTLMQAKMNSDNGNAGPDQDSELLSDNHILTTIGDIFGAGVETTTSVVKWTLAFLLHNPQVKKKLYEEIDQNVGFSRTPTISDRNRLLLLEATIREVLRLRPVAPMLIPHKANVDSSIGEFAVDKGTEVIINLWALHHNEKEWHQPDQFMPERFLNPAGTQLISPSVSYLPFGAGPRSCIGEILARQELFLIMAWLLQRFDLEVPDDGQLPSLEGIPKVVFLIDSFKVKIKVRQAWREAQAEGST
Summary of the method: as §1

[4] = test system: LNCaP human prostatic tumors; test: Human prostatic cancer (LNCaP) xenograft in male nude mice; assay type: in vivo, human (LNCaP) tumors in BALB/c male athymic mice; details: five weeks
Description: We have reported that inoculation of MCF-7 breast cancer cells in Matrigel increases mammary tumor formation in nude mice (Yue et al., 1994). The same procedure was therefore utilized to develop tumors from human prostatic cancer cells (LNCAP) in male nude mice. BALB/c male athymic mice, 4-6 weeks old, were inoculated sc with LNCaP cells suspended in Matrigel (10 mg/ml). Four sites per mouse were injected with 1.8×10^6 cells in 0.1 ml Matrigel. Treatment began when the tumor reached about 100 mm^3 in volume. Tumors were measured before the treatment began and once a week during treatment. Tumor volume was calculated by the formula 4/3πr1^2 r2 (r1 <r2).At the end of treatment, the mice were sacrificed and individual tumors were weighed. The latency of tumor development was 30-40 days and overall tumorigenicity was 82%.
In a further experiment, two mice were treated with I-16 (1 mg/mouse/day, s.c.) beginning 45 days after cell inoculation. Two mice received vehicle as controls. […] The mean tumor weight was 198.78±72 mg in I-16 treated mice compared to 386.3±147.2 mg in the control group. In other experiments, I-47 and I-49 were effective in controlling tumor growth. The total tumor volume of the control mice increased to 884.0% of the initial volume.

[5] = test system: adrenal 17α-hydroxylase/C17,20-lyase; test: Inhibition of adrenal 17α-hydroxylase/C17,20-lyase; assay type: biochemical; details: guinea pig adrenal
[6] = test system: mutant AR which is expressed in LNCaP cells; test: Androgen receptor-mediated gene transcription, mutant AR of LNCaP cells (luciferase, CV1 cells); assay type: cell-based, human
[7] = target: T3, Human Testicular C17,20-lyase (Homo sapiens, UniProt P05093); test: Inhibition of human testicular C17,20-lyase (pregnenolone substrate, testicular microsomes); assay type: biochemical
T3 construct: incubating human testicular microsomes; from tissue; host or cells: human testis, microsomes
T3 sequence (P05093 1-508): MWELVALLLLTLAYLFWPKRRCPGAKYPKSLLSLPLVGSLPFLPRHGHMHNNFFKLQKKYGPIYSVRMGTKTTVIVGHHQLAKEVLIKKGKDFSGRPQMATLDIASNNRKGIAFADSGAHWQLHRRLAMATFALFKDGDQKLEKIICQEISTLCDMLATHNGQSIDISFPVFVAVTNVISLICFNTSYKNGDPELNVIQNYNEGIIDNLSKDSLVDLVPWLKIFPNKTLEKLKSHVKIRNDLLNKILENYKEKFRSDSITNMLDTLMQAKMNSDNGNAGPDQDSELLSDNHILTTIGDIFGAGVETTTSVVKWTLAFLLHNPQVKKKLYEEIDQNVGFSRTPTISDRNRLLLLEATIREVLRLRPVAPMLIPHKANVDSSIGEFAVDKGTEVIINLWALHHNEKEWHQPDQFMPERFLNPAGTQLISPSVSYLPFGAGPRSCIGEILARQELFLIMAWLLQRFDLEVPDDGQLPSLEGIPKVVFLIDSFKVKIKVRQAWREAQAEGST
Summary of the method: as §1

[8] = test system: LNCaP human prostatic cancer cell line; test: Androgen-dependent growth of LNCaP cells
Description: The ability of various inhibitors to reverse the stimulatory effect of testosterone on the growth of the LNCaP human prostatic cancer cell line was tested by comparing cell number in wells treated for 9 days with either drug vehicle only (control), 0.1 nM testosterone only, or 0.1 nM testosterone with inhibitor at 0.3, 1, 2.5, or 5 μM.

[9] = test system: human prostatic tissue (BPH or prostate cancer); test: Prostate tissue in histoculture, DNA synthesis ([3H]-thymidine uptake); details: inhibitor 1 μM
Description: We recently developed a histoculture method to evaluate the growth inhibiting properties of the compounds on human prostatic tissue. […] The tissue samples were then incubated for 3 days in fresh medium/treatment containing 2 μCi/ml [^3 H]-thymidine. Tissue was then digested and DNA extracted. For each sample, [^3 H]-thymidine uptake was normalized to DNA content. […] This finding is consistent with the compound acting as an antiandrogen. None of the compounds produced an independent effect on DNA synthesis in the absence of added androgens.

[10] = substrate: CC(=O)[C@H]1CC[C@H]2[C@@H]3CCC4=CC(=O)CC[C@]4(C)[C@H]3CC[C@]12C; test: Inhibition kinetics of rat 17α-hydroxylase, progesterone substrate; assay type: biochemical; details: other: substrate
[11] = substrate: CC(=O)[C@@]1(O)CC[C@H]2[C@@H]3CCC4=CC(=O)CC[C@]4(C)[C@H]3CC[C@@]21C; test: Inhibition kinetics of rat C17,20-lyase, 17α-hydroxyprogesterone substrate; assay type: biochemical; details: other: substrate

Sequence of human androgen receptor (AR) (P10275 whole entry): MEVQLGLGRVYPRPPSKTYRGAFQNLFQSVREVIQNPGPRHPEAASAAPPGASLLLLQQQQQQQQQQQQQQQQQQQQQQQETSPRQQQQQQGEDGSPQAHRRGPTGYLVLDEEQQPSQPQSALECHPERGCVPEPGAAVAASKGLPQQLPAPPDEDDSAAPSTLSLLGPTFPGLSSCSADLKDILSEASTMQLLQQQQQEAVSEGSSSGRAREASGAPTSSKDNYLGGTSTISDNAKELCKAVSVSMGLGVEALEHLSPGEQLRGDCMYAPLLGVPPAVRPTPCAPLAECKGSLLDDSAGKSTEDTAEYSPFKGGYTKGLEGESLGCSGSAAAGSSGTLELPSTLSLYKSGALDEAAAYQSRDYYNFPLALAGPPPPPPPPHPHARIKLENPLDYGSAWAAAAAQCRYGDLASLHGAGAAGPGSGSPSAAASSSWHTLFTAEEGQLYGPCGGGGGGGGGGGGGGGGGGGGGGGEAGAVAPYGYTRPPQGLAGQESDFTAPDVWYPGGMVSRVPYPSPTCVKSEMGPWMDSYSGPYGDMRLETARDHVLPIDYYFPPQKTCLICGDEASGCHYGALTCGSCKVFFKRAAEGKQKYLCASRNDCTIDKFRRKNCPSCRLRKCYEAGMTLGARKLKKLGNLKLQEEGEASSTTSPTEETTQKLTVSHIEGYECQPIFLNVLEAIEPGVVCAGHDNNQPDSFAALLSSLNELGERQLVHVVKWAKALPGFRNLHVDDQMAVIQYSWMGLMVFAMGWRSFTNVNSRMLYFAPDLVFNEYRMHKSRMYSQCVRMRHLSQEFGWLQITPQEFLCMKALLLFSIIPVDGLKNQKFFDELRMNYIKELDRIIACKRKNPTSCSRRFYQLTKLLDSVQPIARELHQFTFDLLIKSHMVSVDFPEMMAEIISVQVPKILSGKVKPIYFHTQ

C[C@]12CC[C@H]3[C@@H](CC=C4C[C@@H](O)CC[C@@]43C)[C@@H]1CC[C@@H]2c1c[nH]cn1 [Compound I-47, 17β-(4'-imidazolyl)-androst-5-en-3β-ol]
antagonism of wild-type AR (in words) [1]: dose-dependent antagonism | inhibition of 17α-hydroxylase/C17,20-lyase (in words) ([2]; NI = no inhibition): potent inhibitors | times more potent than ketoconazole ([2]; vs ketoconazole): 10-50 times | IC50 ([3]; Table 1, NI = no inhibition, read-out: IC50 17α-OHase): 0.025 µM | IC50 ([3]; Table 3, first figure of 17α-hydroxylase/lyase pair, read-out: IC50 17α-hydroxylase): 0.0252 µM | IC50 ([3]; first figure of pair, read-out: IC50 17α-hydroxylase): 0.011 µM | total tumor volume (% of initial volume), 5 weeks ([4]; 4 mice per group, control 884.0%, FIG. 2): 525.8% | mean tumor weight, 5-week experiment ([4]; control 1310.5±1125.9 mg, I-49 p<0.05 vs control): 607.0 ± 142.4 mg | effect on adrenal enzyme (in words) [5]: very little effect | agonism/antagonism at mutant AR of LNCaP cells (in words) [6]: antagonist; also recorded: not an agonist of the mutant receptor | IC50 ([7]; Table 1, NI = no inhibition, CI = complete inhibition, read-out: IC50 C17,20 lyase): 0.023 µM | IC50 ([7]; Table 3, second figure of pair, CI = complete inhibition, read-out: IC50 lyase): 0.0226 µM | IC50 ([7]; second figure of pair, read-out: IC50 C17,20-lyase): 0.007 µM | reversal of DHT-stimulated LNCaP growth (in words) ([8]; 0.03 nM DHT): dose-dependent reversal | reversal of DHT-stimulated LNCaP growth at 5 μM (in words) ([8]; 0.03 nM DHT, inhibitor 5 μM): nearly complete reversal | reversal of testosterone-stimulated LNCaP growth at 5 μM (in words) ([8]; 0.1 nM testosterone, inhibitor 5 μM): almost completely reversed | reversal of testosterone-stimulated LNCaP growth (in words) ([8]; 0.1 nM testosterone, inhibitor 0.3-5 μM, 9 days): dose-dependent reversal | IC50 ([8]; Homo sapiens, LNCaP, 216 h, read-out: concentration reducing the stimulatory effect of testosterone by 50%): ≤ 1 µM | reversal of DHT-stimulated DNA synthesis (in words), 1 μM ([9]; DHT 10 nM): almost completely reversed | reversal of testosterone-stimulated DNA synthesis (in words), 1 μM ([9]; testosterone 1 μM, FIG. 1): almost complete reversal

B1: rat 17α-hydroxylase (Rattus norvegicus) (protein)
chain: MWELVGLLLLILAYFFWVKSKTPGAKLPRSLPSLPLVGSLPFLPRRGHMHVNFFKLQEKYGPIYSLRLGTTTTVIIGHYQLAREVLIKKGKEFSGRPQMVTQSLLSDQGKGVAFADAGSSWHLHRKLVFSTFSLFKDGQKLEKLICQEAKSLCDMMLAHDKESIDLSTPIFMSVTNIICAICFNISYEKNDPKLTAIKTFTEGIVDATGDRNLVDIFPWLTIFPNKGLEVIKGYAKVRNEVLTGIFEKCREKFDSQSISSLTDILIQAKMNSDNNNSCEGRDPDVFSDRHILATVGDIFGAGIETTTTVLKWILAFLVHNPEVKKKIQKEIDQYVGFSRTPTFNDRSHLLMLEATIREVLRIRPVAPMLIPHKANVDSSIGEFTVPKDTHVVVNLWALHHDENEWDQPDQFMPERFLDPTGSHLITPTQSYLPFGAGPRSCIGEALARQELFVFTALLLQRFDLDVSDDKQLPRLEGDPKVVFLIDPFKVKITVRQAWMDAQAEVST
Km [10]: 0.029 µM

B2: rat C17,20-lyase (Rattus norvegicus) (protein)
chain: MWELVGLLLLILAYFFWVKSKTPGAKLPRSLPSLPLVGSLPFLPRRGHMHVNFFKLQEKYGPIYSLRLGTTTTVIIGHYQLAREVLIKKGKEFSGRPQMVTQSLLSDQGKGVAFADAGSSWHLHRKLVFSTFSLFKDGQKLEKLICQEAKSLCDMMLAHDKESIDLSTPIFMSVTNIICAICFNISYEKNDPKLTAIKTFTEGIVDATGDRNLVDIFPWLTIFPNKGLEVIKGYAKVRNEVLTGIFEKCREKFDSQSISSLTDILIQAKMNSDNNNSCEGRDPDVFSDRHILATVGDIFGAGIETTTTVLKWILAFLVHNPEVKKKIQKEIDQYVGFSRTPTFNDRSHLLMLEATIREVLRIRPVAPMLIPHKANVDSSIGEFTVPKDTHVVVNLWALHHDENEWDQPDQFMPERFLDPTGSHLITPTQSYLPFGAGPRSCIGEALARQELFVFTALLLQRFDLDVSDDKQLPRLEGDPKVVFLIDPFKVKITVRQAWMDAQAEVST
Km [11]: 0.076 µM
